In US20240368150A1 (Hoffmann-La Roche Inc., priority 2021, published 2024) one finds Emax and EC50 data, which are given here for 20 compounds.

The structures appear in SMILES notation. Where a name gives a salt, the structure may show the parent alone. Read-outs that look alike come from different tables or passages of the source. A value given as a limit tells only on which side of the number the result lay.

The test system of experiment [1] is primary human T-cells. Nature of the experiment: Proliferation assay after 5 days (CellTiter-Glo, CD3 stimulation; PBS counter screen). It counts as cell-based. The note with it: Homo sapiens, T-cell, 120 h, CD3 stimulation; for Emax: 5 days, normalized to reference compound A1 as stimulator control = 100%, DMSO neutral control, read-out: Emax proliferation (% activation); for EC50: primary human T-cells, CellTiter-Glo after 5 days, EC50 of fitted sigmoidal curve, read-out: Tcell Proliferation CD3 EC50. In a few lines: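 Read-out: CellTiter-Glo 2.0 luminescence (ATP ∝ cell number) at day 5 after compound addition. Compounds activating unstimulated cells or reducing viability flagged.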

For experiment [2], the system named is primary human T-cells.

Take `N[C@H]1CS(=O)(=O)c2cc(F)c(-c3nnc(N4CC5(CCC5)C4)o3)cc2N(Cc2ccc(Cl)cc2)C1=O` [Example 474]: in the experiment on primary human T-cells [1], the Emax came out at 138% and the EC50 was found to be 135 nM. This compound also registered an EC50 with primary human T-cells [2] of 251 nM.
Turning to `N[C@H]1CS(=O)(=O)c2cc(F)c(-c3nnc(N4CCC5(CC4)CC(F)(F)CN5)o3)cc2N(Cc2ccc(Cl)cc2)C1=O` [Example 475, (3R)-3-amino-5-[(4-chlorophenyl)methyl]-7-[5-(3,3-difluoro-1,8-diazaspiro[4.5]decan-8-yl)-1,3,4-oxadiazol-2-yl]-8-fluoro-1,1-dioxo-2,3-dihydro-1λ^6,5-benzothiazepin-4-one; hydrochloride], the Emax in the experiment on primary human T-cells [1] came out at 85%. The EC50 amounted to 941 nM in the experiment on primary human T-cells [1] and 4240 nM with primary human T-cells [2].
Consider `N[C@H]1CS(=O)(=O)c2cc(F)c(-c3nnc(N4CC5COCC(C4)C5(F)F)o3)cc2N(Cc2ccc(Cl)cc2)C1=O` [Example 476, (3R)-3-amino-5-[(4-chlorophenyl)methyl]-7-[5-(9,9-difluoro-3-oxa-7-azabicyclo[3.3.1]nonan-7-yl)-1,3,4-oxadiazol-2-yl]-8-fluoro-1,1-dioxo-2,3-dihydro-1λ^6,5-benzothiazepin-4-one], for which, in the experiment on primary human T-cells [1], the Emax was determined as 95% and the EC50 amounted to 455 nM. Moreover, in the experiment on primary human T-cells [2], the EC50 is 8680 nM.
The like results for `NC1CN(c2nnc(-c3cc4c(cc3F)S(=O)(=O)C[C@H](N)C(=O)N4Cc3ccc(Cl)cc3)o2)CC(F)(F)C1` (stereo partly drawn) [Example 477, (3R)-3-amino-7-[5-(5-amino-3,3-difluoro-1-piperidyl)-1,3,4-oxadiazol-2-yl]-5-[(4-chlorophenyl)methyl]-8-fluoro-1,1-dioxo-2,3-dihydro-1λ^6.5-benzothiazepin-4-one] were, in that order, 77%, 3490 nM and 2700 nM.
As for `N[C@H]1CS(=O)(=O)c2cc(F)c(-c3nnc(N4CCC5(CC4)COC5)o3)cc2N(Cc2ccc(Cl)cc2)C1=O` [Example 478, (3R)-3-amino-5-[(4-chlorophenyl)methyl]-8-fluoro-7-[5-(2-oxa-7-azaspiro[3.5]nonan-7-yl)-1,3,4-oxadiazol-2-yl]-1,1-dioxo-2,3-dihydro-1λ^6,5-benzothiazepin-4-one], in the experiment on primary human T-cells [1], the Emax was found to be 87% and the EC50 was determined as 1320 nM. For the same compound, in the experiment with primary human T-cells [2], the EC50 was 832 nM.
With `N[C@H]1CS(=O)(=O)c2cc(F)c(-c3nnc(N4CC5(C4)CC(F)(F)C5)o3)cc2N(Cc2ccc(Cl)cc2)C1=O` [Example 479, (3R)-3-amino-5-[(4-chlorophenyl)methyl]-7-[5-(6,6-difluoro-2-azaspiro[3.3]heptan-2-yl)-1,3,4-oxadiazol-2-yl]-8-fluoro-1,1-dioxo-2,3-dihydro-1λ^6,5-benzothiazepin-4-one], in the experiment with primary human T-cells [1], the Emax worked out at 127%. Moreover, the figures for the EC50 with primary human T-cells [1] and with primary human T-cells [2] were 439 nM and 110 nM, respectively.
In the same order, the values of `N[C@H]1CS(=O)(=O)c2cc(F)c(-c3nnc(N4CCC(F)(F)CC4)o3)cc2N(Cc2ccc(Cl)cc2)C1=O` [Example 480, (3R)-3-amino-5-[(4-chlorophenyl)methyl]-7-[5-(4,4-difluoro-1-piperidyl)-1,3,4-oxadiazol-2-yl]-8-fluoro-1,1-dioxo-2,3-dihydro-1λ^6,5-benzothiazepin-4-one] are 152%, 162 nM and less than 15.1 nM.
As to `N[C@H]1CS(=O)(=O)c2cc(F)c(-c3nnc(NC4CC4)o3)cc2N(Cc2ccc(Cl)cc2)C1=O` [Example 481, (3R)-3-amino-5-[(4-chlorophenyl)methyl]-7-[5-(cyclopropylamino)-1,3,4-oxadiazol-2-yl]-8-fluoro-1,1-dioxo-2,3-dihydro-1λ^6,5-benzothiazepin-4-one], in the experiment on primary human T-cells [1], the Emax came out at 89% and the EC50 worked out at 3050 nM. The EC50 in the experiment with primary human T-cells [2] came to 1880 nM.
As for `N[C@H]1CS(=O)(=O)c2cc(F)c(-c3nnc(NC4(CCO)CCCCC4)o3)cc2N(Cc2ccc(Cl)cc2)C1=O` [Example 483, (3R)-3-amino-5-[(4-chlorophenyl)methyl]-8-fluoro-7-[5-[[l-(2-hydroxyethyl)cyclohexyl]amino]-1,3,4-oxadiazol-2-yl]-1,1-dioxo-2,3-dihydro-1λ^6,5-benzothiazepin-4-one], in the experiment on primary human T-cells [1], the Emax came out at 79% and the EC50 was 1540 nM. In the experiment on primary human T-cells [2], this compound returned an EC50 of 2600 nM.
The like results for `CC(O)(CNc1nnc(-c2cc3c(cc2F)S(=O)(=O)C[C@H](N)C(=O)N3Cc2ccc(Cl)cc2)o1)C(F)(F)F` (stereo partly drawn) [Example 484] were, in that order, 51%, 1060 nM and 1890 nM.
As for `N[C@H]1CS(=O)(=O)c2cc(F)c(-c3nnc(N4CCC(F)(F)C(CO)C4)o3)cc2N(Cc2ccc(Cl)cc2)C1=O` (stereo partly drawn) [Example 485, (3R)-3-amino-5-[(4-chlorophenyl)methyl]-7-[5-[4,4-difluoro-3-(hydroxymethyl)-1-piperidyl]-1,3,4-oxadiazol-2-yl]-8-fluoro-1,1-dioxo-2,3-dihydro-1λ^6,5-benzothiazepin-4-one], in the experiment on primary human T-cells [1], the Emax amounted to 98% and the EC50 is 868 nM. Besides, in the experiment with primary human T-cells [2], the EC50 was found to be 8130 nM.
In the same order, the values of `CC(C)(C#N)Nc1nnc(-c2cc3c(cc2F)S(=O)(=O)C[C@H](N)C(=O)N3Cc2ccc(Cl)cc2)o1` [Example 486, 2-methyl-2-[[5-[(3R)-3-amino-5-[(4-chlorophenyl)methyl]-8-fluoro-1,1,4-trioxo-2,3-dihydro-1λ^6,5-benzothiazepin-7-yl]-1,3,4-oxadiazol-2-yl]amino]propanenitrile] are 106%, 2680 nM and 6690 nM.
The like results for `N[C@H]1CS(=O)(=O)c2cc(F)c(-c3nnc(NCC(F)(F)F)o3)cc2N(Cc2ccc(Cl)cc2)C1=O` [Example 487, (3R)-3-amino-5-[(4-chlorophenyl)methyl]-8-fluoro-1,1-dioxo-7-[5-(2,2,2-trifluoroethylamino)-1,3,4-oxadiazol-2-yl]-2,3-dihydro-1λ^6,5-benzothiazepin-4-one] were, in that order, 112%, 1190 nM and 8600 nM.
As to `N[C@H]1CS(=O)(=O)c2cc(F)c(-c3nnc(NC4CNCC(F)(F)C4)o3)cc2N(Cc2ccc(Cl)cc2)C1=O` (stereo partly drawn) [Example 489, (3R)-3-amino-5-[(4-chlorophenyl)methyl]-7-[5-[(5,5-difluoro-3-piperidyl)amino]-1,3,4-oxadiazol-2-yl]-8-fluoro-1,1-dioxo-2,3-dihydro-1λ^6,5-benzothiazepin-4-one], in the experiment on primary human T-cells [1], the Emax is 55% and the EC50 worked out at 7240 nM. The compound further displayed an EC50 in the experiment with primary human T-cells [2] of 4060 nM.
As to `COC(=O)N1CC(Nc2nnc(-c3cc4c(cc3F)S(=O)(=O)C[C@H](N)C(=O)N4Cc3ccc(Cl)cc3)o2)CC(F)(F)C1` (stereo partly drawn) [Example 490, methyl 3,3-difluoro-5-[[5-[(3R)-3-amino-5-[(4-chlorophenyl)methyl]-8-fluoro-1,1,4-trioxo-2,3-dihydro-1λ^6,5-benzothiazepin-7-yl]-1,3,4-oxadiazol-2-yl]amino]piperidine-1-carboxylate], in the experiment on primary human T-cells [1], the Emax is 72% and the EC50 was 6050 nM. Also, in the experiment with primary human T-cells [2], the EC50 is 3760 nM.
The like results for `CC1(C)COCCN1c1nnc(-c2cc3c(cc2F)S(=O)(=O)C[C@H](N)C(=O)N3Cc2ccc(Cl)cc2)o1` [Example 491, (3R)-3-amino-5-[(4-chlorophenyl)methyl]-7-[5-(3,3-dimethylmorpholin-4-yl)-1,3,4-oxadiazol-2-yl]-8-fluoro-1,1-dioxo-2,3-dihydro-1λ^6,5-benzothiazepin-4-one] were, in that order, 56%, 142 nM and 443 nM.
In the same order, the values of `N[C@H]1CS(=O)(=O)c2cc(F)c(-c3nnc(NC4CCCN(CC(F)(F)F)C4)o3)cc2N(Cc2ccc(Cl)cc2)C1=O` (stereo partly drawn) [Example 492, (3R)-3-amino-5-[(4-chlorophenyl)methyl]-8-fluoro-1,1-dioxo-7-[5-[[1-(2,2,2-trifluoroethyl)-3-piperidyl]amino]-1,3,4-oxadiazol-2-yl]-2,3-dihydro-1λ^6,5-benzothiazepin-4-one] are 88%, 671 nM and 638 nM.
On to `CC(Nc1nnc(-c2cc3c(cc2F)S(=O)(=O)C[C@H](N)C(=O)N3Cc2ccc(Cl)cc2)o1)C1CC(F)(F)C1` (stereo partly drawn) [Example 493, (3R)-3-amino-5-[(4-chlorophenyl)methyl]-7-[5-[1-(3,3-difluorocyclobutyl)ethylamino]-1,3,4-oxadiazol-2-yl]-8-fluoro-1,1-dioxo-2,3-dihydro-1λ^6,5-benzothiazepin-4-one], for which, in the experiment with primary human T-cells [1], the Emax came to 102% and the EC50 came out at 982 nM. The compound also displayed an EC50 in the experiment on primary human T-cells [2] of 1280 nM.
In the same order, the values of `CC(C)(CC(F)(F)F)Nc1nnc(-c2cc3c(cc2F)S(=O)(=O)C[C@H](N)C(=O)N3Cc2ccc(Cl)cc2)o1` [Example 494, (3R)-3-amino-5-[(4-chlorophenyl)methyl]-8-fluoro-1,1-dioxo-7-[5-[(3,3,3-trifluoro-1,1-dimethyl-propyl)amino]-1,3,4-oxadiazol-2-yl]-2,3-dihydro-1λ^6.5-benzothiazepin-4-one] are 118%, 464 nM and 1200 nM.
In the same order, the values of `C#CC1(Nc2nnc(-c3cc4c(cc3F)S(=O)(=O)C[C@H](N)C(=O)N4Cc3ccc(Cl)cc3)o2)CCCCC1` [Example 497, (3R)-3-amino-5-[(4-chlorophenyl)methyl]-7-[5-[(1-ethynylcyclohexyl)amino]-1,3,4-oxadiazol-2-yl]-8-fluoro-1,1-dioxo-2,3-dihydro-1λ^6,5-benzothiazepin-4-one] are 125%, 874 nM and 1720 nM.
